Test system: TH-positive neurons
Test: Protection against MPP+ toxicity in ventral midbrain cultures (TH protein, TH-positive neuron counting)
Format: cell-based, rat
Settings: 25 μM, 48 hrs, MPP+ 20 μM
Experimental: Primary rat neuron cultures were prepared from embryos of pregnant Sprague-Dawley rats (E18). The experimental protocol was approved by the University of British Columbia Animal Care Committee. Briefly, the cortical tissue or ventral midbrain tissue was isolated into ice cold HBSS (Invitrogen, 14170-112) and then digested with 0.25% trypsin-EDTA at 37° C. for 30 min. After washing with warm DMEM (supplemented with 10% FBS) three times, neurons were suspended in neuron culture media and dissociated by trituration using varying sizes of pipettes. […]
Neurons were then washed 6×2 min in PBS, and incubated in Alexa Fluor 488 (Life technologies, A-11034; 1:500 dilution in 3% BSA/PBS) for 45 min at 37° C. without agitation. […] Neurons were then imaged with the Zeiss Axio Observer D1 microscope at 20× and 10 fields of view per coverslip were randomly selected and counted. […]
Brain tissues or cultured cells were lysed on ice in the lysis buffer and then the solution was centrifuged at 14,000 rpm for 10 min at 4° C. Next, the supernatant was collected and protein concentrations were determined using a BCA protein assay kit (Thermo Scientific, 23227). […] The band density of each protein was quantified by the Bio-Rad Quantity One software and the relative optical density was analyzed relative to the loading control β-actin on the same membrane.

YGRKKRRQRRRRTKSGVYLVGRRRG (The sequence is synthesized (YGRKKRRQRRRRTKSGVYLVGRRRG)) [Tat-βsyn-degron]
numbers of TH-positive neurons after MPP+ (blinded counting): almost fully protected dopaminergic neurons
TH protein levels after MPP+ (immunoblot): rescue of TH protein levels

Source: US20260027179A1, “ANTI-SYNUCLEINOPATHY PEPTIDE AND METHODS TO TREAT NEURODEGENERATIVE DISEASES” (University of British Columbia, priority 2021, published 2026)
